pIC50: −log10 of the molar value. Active and inactive are the calls of the source. The rule behind the calls is not given here.
Tests used:
[1] = biological target: Myc proto-oncogene protein (Homo sapiens, UniProt P01106); assay: Inhibition of recombinant His6-tagged c-Myc bHLH-ZIP domain (353 to 437 amino acid residues) (unknown origin) assessed as disruption of Myc-Max dimerization at 100 uM by electrophoretic mobility shift assay relative to control
[2] = Binding affinity to 5'-HEX-tagged double standard 22 bp 5'-hexachlorofluoresceine-CACCCGGTCACGTGGCCTACAC-3' (unknown origin) by PAGE analysis
HL-60 = assay: Cytotoxicity against human HL60 cells assessed as growth inhibition after 3 to 5 days by MTT assay
Daudi = assay: Cytotoxicity against human Daudi cells assessed as growth inhibition after 3 to 5 days by MTT assay
Protein max = Protein max (Homo sapiens, UniProt P61244); assay: Inhibition of His6-tagged Max (151 amino acid residues) (unknown origin) assessed as disruption of Max-Max dimerization by electrophoretic mobility shift assay
Sequence of Protein max (P61244 whole entry): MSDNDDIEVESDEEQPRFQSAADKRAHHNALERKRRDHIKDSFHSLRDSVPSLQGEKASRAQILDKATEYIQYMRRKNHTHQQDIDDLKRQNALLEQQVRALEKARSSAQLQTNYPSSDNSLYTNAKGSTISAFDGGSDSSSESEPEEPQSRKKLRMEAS

Sequence of Myc proto-oncogene protein (P01106 whole entry, the tested form may be a part): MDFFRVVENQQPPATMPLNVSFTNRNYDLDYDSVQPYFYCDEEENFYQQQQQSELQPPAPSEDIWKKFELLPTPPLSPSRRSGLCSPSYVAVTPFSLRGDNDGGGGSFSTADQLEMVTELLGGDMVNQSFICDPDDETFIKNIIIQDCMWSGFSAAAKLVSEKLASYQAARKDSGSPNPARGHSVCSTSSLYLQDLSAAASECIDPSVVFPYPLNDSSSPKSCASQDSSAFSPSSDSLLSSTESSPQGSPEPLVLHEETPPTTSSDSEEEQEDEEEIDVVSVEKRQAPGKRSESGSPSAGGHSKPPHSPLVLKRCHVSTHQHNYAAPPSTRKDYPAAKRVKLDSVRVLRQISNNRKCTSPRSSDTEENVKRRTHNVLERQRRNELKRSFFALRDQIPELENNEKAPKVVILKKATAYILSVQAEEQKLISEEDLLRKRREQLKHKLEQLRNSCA

Row | Structure (SMILES) | inhibition [1] | further results
1 | COc1ccccc1Nc1ccc([N+](=O)[O-])c2nonc12 | 0% | 
2 | O=[N+]([O-])c1ccc(Nc2ccccc2-c2ccccc2)cc1 | 0% | 
3 | O=[N+]([O-])c1ccc(Nc2ccc(-c3ccccc3)cc2)c2nonc12 | 28% | 
4 | O=[N+]([O-])c1ccc(Oc2ccccc2-c2ccccc2)c2nonc12 | 36% | 
5 | Cc1ccccc1Nc1ccc([N+](=O)[O-])c2nonc12 | 11% | 
6 | Cc1ccc(Nc2ccc([N+](=O)[O-])c3nonc23)cc1 | 0% | 
7 | O=C(O)c1cccc(Nc2ccc([N+](=O)[O-])c3nonc23)c1 | 0% | 
8 | O=C(O)c1ccc(Nc2ccc([N+](=O)[O-])c3nonc23)cc1 | 93% | Activity [2]: inactive; pIC50 (HL-60): 3.74; pIC50 (Daudi): 4.25; pIC50 (Protein max): < 4.00
9 | O=C(O)c1ccccc1Nc1ccc([N+](=O)[O-])c2nonc12 | 8% | 
10 | O=[N+]([O-])c1ccc(Nc2ccccc2)c2nonc12 | 2% | 
11 | O=C(O)COCC(=O)Nc1ccc(Nc2ccccc2-c2ccccc2)c2nonc12 | 33% | 
12 | O=C(Nc1ccc(Nc2ccccc2-c2ccccc2)c2nonc12)C(F)(F)F | 25% | 
13 | CC(=O)Nc1ccc(Nc2ccccc2-c2ccccc2)c2nonc12 | 2% | 
14 | O=[N+]([O-])c1ccc(Nc2ccccc2-c2ccccc2)c2nonc12 | 38% | pIC50 (HL-60): 4.52; pIC50 (Daudi): 5.00
15 | O=[N+]([O-])c1ccc(NCc2ccccc2)c2nonc12 | 0% | 
16 | O=[N+]([O-])c1ccc(Nc2ccccc2Br)c2nonc12 | 39% | 
17 | O=[N+]([O-])c1ccc(NC2CCCCC2)c2nonc12 | 11% | 
18 | O=[N+]([O-])c1ccc(Nc2cccc(-c3ccccc3)c2)c2nonc12 | 20% | 
19 | O=[N+]([O-])c1ccc(N2CCCCC2)c2nonc12 | 10% | 
20 | COC(=O)Nc1ccc(Nc2ccccc2-c2ccccc2)c2nonc12 | 0% | 
21 | O=C(O)CCC(=O)Nc1ccc(Nc2ccccc2-c2ccccc2)c2nonc12 | 17% | 
22 | O=[N+]([O-])c1ccc(Nc2ccccc2O)c2nonc12 | 13% | 

Source: ChEMBL document CHEMBL2311297 (Bioorg Med Chem Lett, 2013)
